The text below walks through data of PubChem BioAssay AID1918944 (Molecular Pharmacology Branch, DTP, NCI, 2023).

This test deals with 786-0 complex spheroid viability. In words: Anticancer human tumor 786-0 cell line growth inhibition.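 As to all read-outs here: spheroids exposed to agents for seven days before readout.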 The following applies: for viability, T/C: stronger effect = lower value. A digest of the protocol: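 Multicellular complex spheroids of tumor cells with human endothelial cells (HUVEC) and mesenchymal stem cells; the LSD1 inhibitor iadademstat was combined with standard-of-care or investigational agents. Top concentration at or near clinical Cmax, half-log dilutions; final DMSO ≤0.25%.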

“And” between values parts separate entries of the source, which are not always exact repeats. Identical values can stand only once.

Take `CCN(c1cc(-c2ccc(CN3CCOCC3)cc2)cc(C(=O)NCc2c(C)cc(C)[nH]c2=O)c1C)C1CCOCC1` + NC1CCC(NC2CC2c2ccccc2)CC1: the IC50 – broadly, the concentration needed to halve the response being measured – by setting is: (curve of first compound, second compound 0.1 µM) greater than 3 µM; (curve of first compound, second compound 0.316 µM) greater than 3 µM; (curve of first compound, second compound 1 µM) greater than 3 µM; (curve of first compound, second compound 3.16 µM) greater than 3 µM; (curve of first compound, second compound 10 µM) greater than 3 µM. Besides, the viability, T/C (usually the result in the treated group divided by that in the control group, in per cent) by setting is: (second compound 0.1 µM, first compound 0.00949 µM) 121%; (second compound 0.1 µM, first compound 0.03 µM) 122%; (second compound 0.1 µM, first compound 0.0949 µM) 117%; (second compound 0.1 µM, first compound 0.3 µM) 114%; (second compound 0.1 µM, first compound 0.949 µM) 114%; (second compound 0.1 µM, first compound 3 µM) 111%. Also, the viability, T/C was 119% (second compound 0.316 µM, first compound 0.00949 µM); 118% (second compound 0.316 µM, first compound 0.03 µM); 114% (second compound 0.316 µM, first compound 0.0949 µM); 116% (second compound 0.316 µM, first compound 0.3 µM); 109% (second compound 0.316 µM, first compound 0.949 µM); 106% (second compound 0.316 µM, first compound 3 µM). In addition, the viability, T/C (second compound 1 µM, first compound 0.00949 µM) is 116%; the viability, T/C (second compound 1 µM, first compound 0.03 µM) is 114%; the viability, T/C (second compound 1 µM, first compound 0.0949 µM) was 115%; the viability, T/C (second compound 1 µM, first compound 0.3 µM) is 109%; the viability, T/C (second compound 1 µM, first compound 0.949 µM) is 105%; the viability, T/C (second compound 1 µM, first compound 3 µM) is 106%. The viability, T/C is 111% (second compound 3.16 µM, first compound 0.00949 µM); 105% (second compound 3.16 µM, first compound 0.03 µM); 109% (second compound 3.16 µM, first compound 0.0949 µM); 110% (second compound 3.16 µM, first compound 0.3 µM); 97.2% (second compound 3.16 µM, first compound 0.949 µM); 105% (second compound 3.16 µM, first compound 3 µM). The viability, T/C is 87.2% (second compound 10 µM, first compound 0.00949 µM); 90.2% (second compound 10 µM, first compound 0.03 µM); 91.2% (second compound 10 µM, first compound 0.0949 µM); 96.5% (second compound 10 µM, first compound 0.3 µM); 88.3% (second compound 10 µM, first compound 0.949 µM); 89% (second compound 10 µM, first compound 3 µM).

As to `O=C(C=Cc1cccc(S(=O)(=O)Nc2ccccc2)c1)NO`, the viability, T/C (compound 0.00949 µM) is 96.4% and 90.1%; the viability, T/C (compound 0.03 µM) is 94.9% and 96.3%; the viability, T/C (compound 0.0949 µM) was 98.5% and 102%; the viability, T/C (compound 0.3 µM) is 93.5% and 98.6%; the viability, T/C (compound 0.949 µM) was 48.6% and 73.1%; the viability, T/C (compound 3 µM) was 6.1% and 9.6%. Besides, the IC50 (curve of compound) is 0.915 µM and 1.44 µM.
